Among the data in ChEMBL document CHEMBL3727364, “Resorcinol n-aryl amide compounds, for use as pyruvate dehydrogenase kinase inhibitors” (2015) are IC50 values, retold here.

pIC50: −log10 of the molar value.

The target in the assay is [Pyruvate dehydrogenase (acetyl-transferring)] kinase isozyme 1, mitochondrial (Homo sapiens, UniProt Q15118). The experiment in a line: Binding affinity to pyruvate dehydrogenase kinase 1 (unknown origin) incubated for 90 mins by VER-00160364 probe based fluorescence polarization assay.
[Pyruvate dehydrogenase (acetyl-transferring)] kinase isozyme 1, mitochondrial, sequence (Q15118 whole entry): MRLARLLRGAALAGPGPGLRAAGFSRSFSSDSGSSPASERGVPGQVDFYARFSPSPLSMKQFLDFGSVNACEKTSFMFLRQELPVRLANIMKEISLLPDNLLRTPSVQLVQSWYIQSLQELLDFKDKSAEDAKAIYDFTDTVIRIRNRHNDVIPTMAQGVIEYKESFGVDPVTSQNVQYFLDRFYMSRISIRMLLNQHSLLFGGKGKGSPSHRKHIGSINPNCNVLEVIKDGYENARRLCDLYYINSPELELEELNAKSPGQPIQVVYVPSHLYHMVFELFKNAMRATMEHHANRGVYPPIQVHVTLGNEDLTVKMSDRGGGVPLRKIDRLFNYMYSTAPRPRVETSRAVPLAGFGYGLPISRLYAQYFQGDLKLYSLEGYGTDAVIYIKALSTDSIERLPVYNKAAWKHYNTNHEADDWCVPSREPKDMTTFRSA
Regarding `O=C(c1ccc(N(Cc2cccnc2)C(=O)c2ccc(O)cc2O)cc1)N1CCC(O)CC1`, the pIC50 is 7.00. On to `Cc1cc(S(=O)(=O)N2CCN(C)CC2)cnc1-c1ccc(N(Cc2ccccc2)C(=O)c2ccc(O)cc2O)cc1`, for which the pIC50 is 8.00. Under `CN(Cc1ccnc2ccccc12)C(=O)c1ccc(N(Cc2ccccc2)C(=O)c2ccc(O)cc2O)cc1` stands 7.00; under `CN(Cc1ccc2ncccc2c1)C(=O)c1ccc(N(Cc2cccnc2)C(=O)c2ccc(O)cc2O)cc1`, 7.00. In turn, `CC(c1ccccc1)N(C(=O)c1ccc(O)cc1O)c1ccc(C(=O)N(C)C)cc1` (stereo not given) had a pIC50 of 6.00. This pIC50 lies 1.00 log units lower than the previous one.

For the compound `CCCc1cncnc1-c1ccc(N(Cc2ccccc2)C(=O)c2ccc(O)cc2O)cc1`, the pIC50 is 6.00. The same measure for `Cc1cc(S(=O)(=O)NCc2ccccn2)cnc1-c1ccc(N(Cc2ccccc2)C(=O)c2ccc(O)cc2O)cc1`: 8.00; for `Cc1c(-c2ccc(N(Cc3ccccc3)C(=O)c3ccc(O)cc3O)cc2)ccc2c1NC(=O)C2=O`: 6.00; for `CN(Cc1cccc2cnccc12)C(=O)c1ccc(N(Cc2cccnc2)C(=O)c2ccc(O)cc2O)cc1`: 7.00. `COc1ccc(CN(C)C(=O)c2ccc(N(Cc3ccccc3)C(=O)c3cc(Cl)c(O)cc3O)cc2)cc1` had a pIC50 of 7.00.

On to `O=C(c1ccc(N(Cc2ccccc2)C(=O)c2ccc(O)cc2O)cc1)N1CCC(O)CC1`, for which the pIC50 is 7.00.

`Cc1nc(C(F)(F)F)nc(-c2ccc(N(Cc3ccccc3)C(=O)c3ccc(O)cc3O)cc2)c1C` showed a pIC50 of 6.00.

In turn, `CNC(=O)c1ccc(N(Cc2ccccc2)C(=O)c2ccc(O)cc2O)cc1` had a pIC50 of 6.00. Take `CNS(=O)(=O)c1cnc(-c2ccc(N(Cc3ccccc3)C(=O)c3ccc(O)cc3O)cc2)c(C)c1`: the pIC50 was 7.00.

The compound `O=C(c1ccc(O)cc1O)N(Cc1ccccc1)c1ccc(-c2nc(Cl)nc3[nH]ccc23)cc1` gave a pIC50 of 6.00. `CN(Cc1ccc(OC(F)(F)F)cc1)C(=O)c1ccc(N(Cc2cccnc2)C(=O)c2ccc(O)cc2O)cc1`: the pIC50 is 7.00. Under `O=C(c1ccc(O)cc1O)N(Cc1ccccc1)c1ccc(-c2nc(Cl)nc3c2COCC3)cc1` stands 6.00. `CN(Cc1ccc2ccccc2c1)C(=O)c1ccc(N(Cc2ccccc2)C(=O)c2ccc(O)cc2O)cc1` showed a pIC50 of 5.00.

With `Cc1cc(-c2ccc(N(Cc3ccccc3)C(=O)c3ccc(O)cc3O)cc2)nnc1Cl`, the pIC50 is 5.00. The same measure for `C[C@@H](c1ccccc1)N(C(=O)c1cc(Cl)c(O)cc1O)c1ccc(C(=O)N(C)C)cc1`: 6.00; for `Cc1cc(S(=O)(=O)N2CCC(F)(F)CC2)cnc1-c1ccc(N(Cc2ccccc2)C(=O)c2ccc(O)cc2O)cc1`: 6.00; for `CN(Cc1cccc2cnccc12)C(=O)c1ccc(N(Cc2ccccc2)C(=O)c2ccc(O)cc2O)cc1`: 7.00. The compound `Cc1cc(S(=O)(=O)N2CCCCC2)cnc1-c1ccc(N(Cc2ccccc2)C(=O)c2ccc(O)cc2O)cc1` had a pIC50 of 7.00. The same measure for `Cc1cc(S(=O)(=O)NCCN(C)C)cnc1-c1ccc(N(Cc2ccccc2)C(=O)c2ccc(O)cc2O)cc1`: 7.00; for `Cc1cccnc1-c1ccc(N(Cc2ccccc2)C(=O)c2ccc(O)cc2O)cc1`: 6.00. The compound `CN(Cc1cccc(C(F)(F)F)c1)C(=O)c1ccc(N(Cc2ccccc2)C(=O)c2ccc(O)cc2O)cc1` gave a pIC50 of 5.00. Under `Cc1cc(S(=O)(=O)NCc2cccnc2)cnc1-c1ccc(N(Cc2ccccc2)C(=O)c2ccc(O)cc2O)cc1` stands 8.00; under `O=C(NC1CC1)c1ccc(N(Cc2ccccc2)C(=O)c2ccc(O)cc2O)cc1`, 6.00. Under `CN(Cc1cccc2cccnc12)C(=O)c1ccc(N(Cc2ccccc2)C(=O)c2ccc(O)cc2O)cc1` stands 7.00; under `COCCN(C)S(=O)(=O)c1cnc(-c2ccc(N(Cc3ccccc3)C(=O)c3ccc(O)cc3O)cc2)c(C)c1`, 7.00.

On to `CN(C)C(=O)c1ccc(N(Cc2ccccc2)C(=O)c2ccc(O)cc2O)cc1`, for which the pIC50 was 7.00. With `Cc1cccnc1-c1ccc(N(Cc2ccccc2)C(=O)c2cc(Cl)c(O)cc2O)cc1`, the pIC50 is 6.00. The same measure for `COc1ccc(CNC(=O)c2ccc(N(Cc3cccnc3)C(=O)c3ccc(O)cc3O)cc2)cc1`: 7.00. Under `CN(Cc1cccs1)C(=O)c1ccc(N(Cc2ccccc2)C(=O)c2ccc(O)cc2O)cc1` stands 7.00. The compound `O=C(c1ccc(O)cc1O)N(Cc1ccccc1)c1ccccc1` gave a pIC50 of 6.00. This pIC50 is 1.00 log units lower than that of the compound before. The same measure for `CN(Cc1ccc2nccnc2c1)C(=O)c1ccc(N(Cc2cccnc2)C(=O)c2ccc(O)cc2O)cc1`: 8.00; for `CN(C)C(=O)c1ccc(N(Cc2ccc(F)cc2)C(=O)c2cc(Cl)c(O)cc2O)cc1`: 7.00; for `CC(=O)N1CCN(S(=O)(=O)c2cnc(-c3ccc(N(Cc4ccccc4)C(=O)c4ccc(O)cc4O)cc3)c(C)c2)CC1`: 8.00. The same measure for `CCOC(=O)c1nc(C)nc(-c2ccc(N(Cc3ccccc3)C(=O)c3ccc(O)cc3O)cc2)c1C`: 5.00; for `CC(c1ccccc1)N(C(=O)c1cc(Cl)c(O)cc1O)c1ccc(C(=O)N(C)C)cc1` (stereo not given): 7.00. Under `CN(Cc1ccc2ncccc2c1)C(=O)c1ccc(N(Cc2ccccc2)C(=O)c2ccc(O)cc2O)cc1` stands 7.00. `CN(Cc1ccc2ccccc2n1)C(=O)c1ccc(N(Cc2cccnc2)C(=O)c2ccc(O)cc2O)cc1` showed a pIC50 of 7.00. On to `Cc1cc(N)ncc1-c1ccc(N(Cc2ccccc2)C(=O)c2ccc(O)cc2O)cc1`, for which the pIC50 is 6.00.

Compound `CN(Cc1ccc(C#N)cc1)C(=O)c1ccc(N(Cc2cccnc2)C(=O)c2ccc(O)cc2O)cc1` showed a pIC50 of 7.00.

With `COc1cnc(Cl)nc1-c1ccc(N(Cc2ccccc2)C(=O)c2ccc(O)cc2O)cc1`, the pIC50 is 7.00. The same measure for `Cc1cc(Cl)nnc1-c1ccc(N(Cc2ccccc2)C(=O)c2ccc(O)cc2O)cc1`: 7.00; for `Cc1cc(S(=O)(=O)NCCCC(N)=O)cnc1-c1ccc(N(Cc2ccccc2)C(=O)c2ccc(O)cc2O)cc1`: 8.00.

Consider `Cn1ccnc1-c1ccc(N(Cc2ccccc2)C(=O)c2ccc(O)cc2O)cc1`, for which the pIC50 was 6.00.

As for `COc1ccc(CN(C)C(=O)c2ccc(N(Cc3cccnc3)C(=O)c3ccc(O)cc3O)cc2)cc1`, the pIC50 was 8.00. Under `CN(Cc1cccc2ncccc12)C(=O)c1ccc(N(Cc2cccnc2)C(=O)c2ccc(O)cc2O)cc1` stands 7.00; under `COc1ccc(CN(C)C(=O)c2ccc(N(Cc3cccc(C)c3)C(=O)c3cc(Cl)c(O)cc3O)cc2)cc1`, 6.00.

Turning to `C[C@H](c1ccccc1)N(C(=O)c1cc(Cl)c(O)cc1O)c1ccc(C(=O)N(C)C)cc1`, the negative logarithm of the IC50 (pIC50) was 6.00. Under `CN(C)C(=O)c1ccc(N(Cc2cccc(O)c2)C(=O)c2cc(Cl)c(O)cc2O)cc1` stands 7.00.

In the case of `CN(Cc1cccc2ncccc12)C(=O)c1ccc(N(Cc2ccccc2)C(=O)c2ccc(O)cc2O)cc1`, the pIC50 was 7.00. Under `Cc1ccc(CN(C(=O)c2cc(Cl)c(O)cc2O)c2ccc(C(=O)N(C)C)cc2)cc1` stands 7.00; under `O=C(NC1CC1)c1ccc(N(Cc2cccnc2)C(=O)c2ccc(O)cc2O)cc1`, 6.00; under `Cc1nc(N)ccc1-c1ccc(N(Cc2ccccc2)C(=O)c2ccc(O)cc2O)cc1`, 6.00. `CNC(=O)c1ccc(N(Cc2cccnc2)C(=O)c2ccc(O)cc2O)cc1` gave a pIC50 of 6.00. The same measure for `CN(Cc1ccc2nccnc2c1)C(=O)c1ccc(N(Cc2ccccc2)C(=O)c2ccc(O)cc2O)cc1`: 8.00. The same measure for `CN(Cc1ccc2ccccc2n1)C(=O)c1ccc(N(Cc2ccccc2)C(=O)c2ccc(O)cc2O)cc1`: 7.00.

`CN(C)C(=O)c1ccc(N(Cc2cccc(C#N)c2)C(=O)c2cc(Cl)c(O)cc2O)cc1` gave a pIC50 of 7.00. The same measure for `COc1ccc(CNC(=O)c2ccc(N(Cc3ccccc3)C(=O)c3ccc(O)cc3O)cc2)cc1`: 6.00; for `CN(C)CCN(C)C(=O)c1ccc(N(Cc2ccccc2)C(=O)c2ccc(O)cc2O)cc1`: 6.00. Under `CN(Cc1ccnc2ccccc12)C(=O)c1ccc(N(Cc2cccnc2)C(=O)c2ccc(O)cc2O)cc1` stands 7.00; under `Cc1ccnnc1-c1ccc(N(Cc2ccccc2)C(=O)c2ccc(O)cc2O)cc1`, 7.00; under `CN(Cc1cccc2ccccc12)C(=O)c1ccc(N(Cc2cccnc2)C(=O)c2ccc(O)cc2O)cc1`, 8.00.

In turn, `CN(C)CCN(C)C(=O)c1ccc(N(Cc2cccnc2)C(=O)c2ccc(O)cc2O)cc1` showed a negative logarithm of the IC50 (pIC50) of 6.00. Under `CN(Cc1cccs1)C(=O)c1ccc(N(Cc2cccnc2)C(=O)c2ccc(O)cc2O)cc1` stands 7.00; under `CCc1cnc(C)nc1-c1ccc(N(Cc2ccccc2)C(=O)c2ccc(O)cc2O)cc1`, 7.00. Compound `Cc1cnc(Cl)nc1-c1ccc(N(Cc2ccccc2)C(=O)c2ccc(O)cc2O)cc1` had a pIC50 of 8.00. The compound `CC(=O)NCCNS(=O)(=O)c1cnc(-c2ccc(N(Cc3ccccc3)C(=O)c3ccc(O)cc3O)cc2)c(C)c1` had a pIC50 of 8.00. Compound `O=C(c1ccc(O)cc1O)N(Cc1ccccc1)c1ccc(-c2ncnc3ccsc23)cc1` gave a pIC50 of 5.00. The compound `COc1ccc(CN(C)C(=O)c2ccc(N(Cc3ccccc3)C(=O)c3ccc(O)cc3O)cc2)cc1` showed a pIC50 of 7.00. For the compound `CN(Cc1cccc2ccccc12)C(=O)c1ccc(N(Cc2ccccc2)C(=O)c2ccc(O)cc2O)cc1`, the pIC50 is 6.00. Turning to `Cc1cc(S(=O)(=O)NCc2ccccc2)cnc1-c1ccc(N(Cc2ccccc2)C(=O)c2ccc(O)cc2O)cc1`, the negative logarithm of the IC50 (pIC50) is 7.00. For `Cc1cc(S(=O)(=O)N2CCOCC2)cnc1-c1ccc(N(Cc2ccccc2)C(=O)c2ccc(O)cc2O)cc1`, the pIC50 was 7.00.

Turning to `CN(C)C(=O)c1ccc(N(Cc2ccccc2)C(=O)c2cc(Cl)c(O)cc2O)cc1`, the pIC50 was 8.00. Consider `CN(C)C(=O)c1ccc(N(Cc2ccc(C(F)(F)F)cc2)C(=O)c2cc(Cl)c(O)cc2O)cc1`, for which the pIC50 is 7.00. The same measure for `O=C(c1ccc(O)cc1O)N(Cc1ccccc1)c1ccc(-c2nc(Cl)nc3ccsc23)cc1`: 5.00; for `Cc1cc(S(=O)(=O)NCc2cccs2)cnc1-c1ccc(N(Cc2ccccc2)C(=O)c2ccc(O)cc2O)cc1`: 8.00.
